One may read the Kd as the free concentration of one partner at which half of the binding sites on the other are occupied at equilibrium, for simple one-to-one binding. In general, EC50 refers to the concentration at which the effect is half-maximal.

Among the data in patent publication US20260083851A1 (AVILAR THERAPEUTICS, INC., priority 2022, published 2026) are Kd and EC50 values, retold here.

Where two headings read alike, the source gives them in different places.

One test deals with IgG. The experiment in a line: IgG SPR binding.
The target in the next test is T1, ASGPR (Homo sapiens, UniProt P07306).
T1 construct: biotin (biotinylated)
T1 sequence (P07306 1-291): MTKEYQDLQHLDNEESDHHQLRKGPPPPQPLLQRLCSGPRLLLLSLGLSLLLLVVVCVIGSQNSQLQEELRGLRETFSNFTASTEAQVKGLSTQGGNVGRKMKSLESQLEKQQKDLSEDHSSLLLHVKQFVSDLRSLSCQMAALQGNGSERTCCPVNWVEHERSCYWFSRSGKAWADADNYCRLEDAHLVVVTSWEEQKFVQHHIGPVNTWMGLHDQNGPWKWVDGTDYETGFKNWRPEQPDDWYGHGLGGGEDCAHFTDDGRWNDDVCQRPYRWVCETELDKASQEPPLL
The experiment in a line: ASGPR SPR binding. For orientation: In SPR one partner is held on a chip, and binding of the other changes the refractive index at the surface.

The next test relates to HepG2 cells. The experiment in a line: Cellular uptake assay (high-content imaging). In kind it is cell-based, human. The following applies: 100 nM AF488-labeled antibody, 6 hours at 37° C. From the text: The cellular uptake assay is designed to measure compound-mediated cellular uptake of fluorescently labeled antibody following ternary complex formation with the ASGPR receptor and endocytosis of the entire complex into cells. The optimal concentration of compound will result in the maximum number of cells with intracellular antibody and is represented as the peak ratio of antibody-positive cells over the total number of cells. As with the ternary complex formation assay, too much or too little compound will result in suboptimal complex formation and fewer cells will have measurable intracellular fluorescence.
Human IgG (Sigma-Aldrich, 14506) was covalently labeled with Alexa Fluor 488 using the Alexa Fluor™ 488 Protein Labeling Kit (Thermo Fisher, A10235) following the manufacturer's instructions. HepG2 cells were plated in DMEM supplemented with 10% FBS at 5,000 cells per well in a 96-well microtiter plate and incubated for approximately 18 hours at 37° C./5% CO2. For studies using human IgG, 100 nM AF488-labeled human IgG antibodies and serial dilutions of IgG-based degrader (0.1% DMSO final concentration) were added to the cells and the mixture was incubated at 37° C. for 6 hours. For studies using DNP, 100 nM AF488-labeled DNP antibodies and serial dilutions of DNP-based degrader (0.1% DMSO final concentration) were added to the cells and the mixture was incubated at 37° C. for 6 hours. HepG2 cells were fixed in 100% methanol at −20° C. for 20 min, washed 3× with PBS, then stained with DAPI (Thermo, Cat #H3570). HepG2 cells were imaged for DAPI and Alexa Fluor 488 using the Operetta CLS, high-content analysis system (PerkinElmer). Data is presented as the ratio of the number of cells positive for hIgG or DNP (AF-488 fluorescence) over the total cell number (measured by DAPI).

The target of test [1] is T2, ASGPR receptor on HepG2 cells (ternary complex with AF488-labeled antibody) (Homo sapiens, UniProt P07306).
T2 construct: host or cells: HepG2
T2 sequence (P07306 1-291): T1 sequence (P07306 1-291)
T2 sequence (P07307 1-311 partner): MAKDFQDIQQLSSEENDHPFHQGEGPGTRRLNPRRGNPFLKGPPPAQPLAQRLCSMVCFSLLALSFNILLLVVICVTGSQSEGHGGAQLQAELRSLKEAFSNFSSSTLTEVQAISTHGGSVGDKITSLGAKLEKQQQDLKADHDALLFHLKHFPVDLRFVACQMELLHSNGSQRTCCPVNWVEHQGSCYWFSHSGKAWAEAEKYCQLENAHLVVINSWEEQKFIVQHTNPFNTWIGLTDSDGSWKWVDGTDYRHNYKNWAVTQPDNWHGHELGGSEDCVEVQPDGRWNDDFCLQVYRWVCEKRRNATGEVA
Description: Ternary complex formation assay (flow cytometry, cell-associated AF488 fluorescence). Format: cell-based. Particulars: 100 nM AF488-labeled antibody, 1 hour at 4° C. Background: In flow cytometry, cells or beads pass a laser one at a time.

[2] abbreviates: Table 3, read-out: IgG SPR Binding KD.
The mark [3] stands for this setting: Table 3, read-out: ASGPR SPR Binding KD.
[4] abbreviates: Homo sapiens, Table 3, class symbols, read-out: Uptake Assay (EC50).
Where [5] appears, read: Table 3, class symbols, read-out: Ternary Complex EC50.
Setting [6] is: Table 3, numeric bounds, read-out: Ternary Complex EC50.
The mark [7] stands for this setting: second table, read-out: ASGPR KD.
The mark [8] stands for this setting: the 25th table, class symbols, read-out: Uptake EC50.
The mark [9] stands for this setting: the 25th table, class symbols, read-out: TCF EC50.

Consider `CC(C)C[C@@H]1NC(=O)[C@H](Cc2cnc[nH]2)NC(=O)[C@H](Cc2c[nH]c3ccccc23)NC(=O)[C@H](C)NC(=O)[C@@H]2CSSC[C@H](NC(=O)[C@H](Cc3c[nH]c4ccccc34)NC(=O)[C@H](C(C)C)NC(=O)[C@H](CC(C)C)NC(=O)[C@H](CCC(=O)O)NC(=O)CNC1=O)C(=O)N[C@@H]([C@@H](C)O)C(=O)N1CCC[C@@H]1C(=O)N1C[C@@H](NC(=O)c3ccc(N4CCC(CN5CCN(C[C@H]6OC[C@H](Nc7ccnc(C(F)(F)F)n7)[C@@H](O)[C@H]6O)CC5)CC4)cc3)C[C@H]1C(=O)N[C@@H](CC(=O)O)C(=O)N2` [compound 31], for which the Kd on IgG (setting [2]) and at ASGPR (setting [3]) was less than 100 nM each time. For the same molecule, the concentration giving a half-maximal response (EC50) (with HepG2 cells (setting [4]); in test [1] (setting [5])) was less than 100 nM in each case.

As for `CC(C)C[C@@H]1NC(=O)[C@H](Cc2cnc[nH]2)NC(=O)[C@H](Cc2c[nH]c3ccccc23)NC(=O)[C@H](C)NC(=O)[C@@H]2CSSC[C@H](NC(=O)[C@H](Cc3c[nH]c4ccccc34)NC(=O)[C@H](C(C)C)NC(=O)[C@H](CC(C)C)NC(=O)[C@H](CCC(=O)O)NC(=O)CNC1=O)C(=O)N[C@@H]([C@@H](C)O)C(=O)N1CCC[C@@H]1C(=O)N1C[C@H](NC(=O)c3ccc(N4CCC(CN5CCN(C[C@H]6OC[C@H](Nc7ccnc(C(F)(F)F)n7)[C@@H](O)[C@H]6O)CC5)CC4)cc3)C[C@H]1C(=O)N[C@@H](CC(=O)O)C(=O)N2` [compound 32], the equilibrium dissociation constant (Kd) on IgG (setting [2]) and at ASGPR (setting [3]) was less than 100 nM throughout. For the same molecule, the EC50 (in the test on HepG2 cells (setting [4]); in test [1] (setting [5])) was less than 100 nM throughout.

As for `CC(C)C[C@@H]1NC(=O)[C@H](Cc2cnc[nH]2)NC(=O)[C@H](Cc2c[nH]c3ccccc23)NC(=O)[C@H](C)NC(=O)[C@@H]2CSSC[C@H](NC(=O)[C@H](Cc3c[nH]c4ccccc34)NC(=O)[C@H](C(C)C)NC(=O)[C@H](CC(C)C)NC(=O)[C@H](CCC(=O)O)NC(=O)CNC1=O)C(=O)N[C@@H]([C@@H](C)O)C(=O)N1CCC[C@@H]1C(=O)N1C[C@@H](NC(=O)COCCOCC(=O)NC[C@H]3OC[C@H](Nc4nc(C(F)(F)F)ccc4F)[C@@H](O)[C@H]3O)C[C@H]1C(=O)N[C@@H](CC(=O)O)C(=O)N2` [compound 33], the results for the Kd at IgG (setting [2]) and on ASGPR (setting [3]) were less than 100 nM and 100 to 500 nM, respectively. Moreover, the EC50 (in the test on HepG2 cells (setting [4]); in test [1] (setting [5])) was less than 100 nM throughout.

As for `CC(C)C[C@@H]1NC(=O)[C@H](Cc2cnc[nH]2)NC(=O)[C@H](Cc2c[nH]c3ccccc23)NC(=O)[C@H](C)NC(=O)[C@@H]2CSSC[C@H](NC(=O)[C@H](Cc3c[nH]c4ccccc34)NC(=O)[C@H](C(C)C)NC(=O)[C@H](CC(C)C)NC(=O)[C@H](CCC(=O)O)NC(=O)CNC1=O)C(=O)N[C@@H]([C@@H](C)O)C(=O)N1CCC[C@@H]1C(=O)N1C[C@@H](NC(=O)COCCOCC(=O)NC[C@H]3OC[C@H](Nc4nccc(C(F)(F)F)n4)[C@@H](O)[C@H]3O)C[C@H]1C(=O)N[C@@H](CC(=O)O)C(=O)N2` [compound 34], the Kd at IgG (setting [2]) was less than 100 nM; at ASGPR (setting [3]), greater than 1000 nM. The EC50 with HepG2 cells (setting [4]) is greater than 1000 nM; in test [1] (setting [6]), greater than 964 nM.

On to `CC(C)C[C@@H]1NC(=O)[C@H](Cc2cnc[nH]2)NC(=O)[C@H](Cc2c[nH]c3ccccc23)NC(=O)[C@H](C)NC(=O)[C@@H]2CSSC[C@H](NC(=O)[C@H](Cc3c[nH]c4ccccc34)NC(=O)[C@H](C(C)C)NC(=O)[C@H](CC(C)C)NC(=O)[C@H](CCC(=O)O)NC(=O)CNC1=O)C(=O)N[C@@H]([C@@H](C)O)C(=O)N1CCC[C@@H]1C(=O)N1C[C@H](NC(=O)COCCOCC(=O)NC[C@H]3OC[C@H](Nc4nccc(C(F)(F)F)n4)[C@@H](O)[C@H]3O)C[C@H]1C(=O)N[C@@H](CC(=O)O)C(=O)N2` [compound 35], for which the Kd was less than 100 nM at IgG (setting [2]) and greater than 1000 nM on ASGPR (setting [3]). The EC50 was greater than 10000 nM in the test with HepG2 cells (Homo sapiens, Table 3, numeric bounds, read-out: Uptake Assay (EC50)) and greater than 10000 nM in test [1] (setting [6]).

For `CC(=O)N[C@H]1[C@H](OCCCCOCCOCCOCCNC(=O)CCOCC(COCCC(=O)NCCOCCOCCOCCO[C@@H]2O[C@H](CO)[C@H](O)[C@H](O)[C@H]2NC(C)=O)NC(=O)CCCCCn2cc(CCCC(=O)NCCOCCOCCOCCOCCC(=O)N[C@H]3C[C@H]4C(=O)N[C@@H](CC(=O)O)C(=O)N[C@H]5CSSC[C@H](NC(=O)[C@H](Cc6c[nH]c7ccccc67)NC(=O)[C@H](C(C)C)NC(=O)[C@H](CC(C)C)NC(=O)[C@H](CCC(=O)O)NC(=O)CNC(=O)[C@H](CC(C)C)NC(=O)[C@H](Cc6cnc[nH]6)NC(=O)[C@H](Cc6c[nH]c7ccccc67)NC(=O)[C@H](C)NC5=O)C(=O)N[C@@H]([C@@H](C)O)C(=O)N5CCC[C@@H]5C(=O)N4C3)nn2)O[C@H](CO)[C@H](O)[C@@H]1O` (stereo partly drawn) [compound 86], the Kd on IgG (second table, read-out: IgG KD) was less than 100 nM; on ASGPR (setting [7]) it was greater than 1000 nM. For the same molecule, the EC50 (in the test on HepG2 cells (setting [8]); in test [1] (setting [9])) was greater than 1000 nM throughout.

Regarding `CC(C)C[C@@H]1NC(=O)[C@H](Cc2cnc[nH]2)NC(=O)[C@H](Cc2c[nH]c3ccccc23)NC(=O)[C@H](C)NC(=O)[C@@H](NC(=O)[C@H](CC(=O)O)NC(=O)CCOCCOCCOCCOCCNC(=O)CCCc2cn(CCCCCC(=O)NC(CCCCC(=O)NCCOCCOCCOCCOC[C@H]3OC[C@H](Nc4nccc(C(F)(F)F)n4)[C@@H](O)[C@H]3O)COCCC(=O)NCCOCCOCCOCCOC[C@H]3OC[C@H](Nc4nccc(C(F)(F)F)n4)[C@@H](O)[C@H]3O)nn2)CSSC[C@@H](C(=O)N[C@H](C(N)=O)[C@@H](C)O)NC(=O)[C@H](Cc2c[nH]c3ccccc23)NC(=O)[C@H](C(C)C)NC(=O)[C@H](CC(C)C)NC(=O)[C@H](CCC(=O)O)NC(=O)CNC1=O` (stereo partly drawn) [compound 90], the Kd at IgG (second table, read-out: IgG KD) was less than 100 nM; at ASGPR (setting [7]) it was less than 100 nM. Moreover, the EC50 (with HepG2 cells (setting [8]); in test [1] (setting [9])) was less than 100 nM each time.

Consider `CC(C)C[C@@H]1NC(=O)[C@H](Cc2cnc[nH]2)NC(=O)[C@H](Cc2c[nH]c3ccccc23)NC(=O)[C@H](C)NC(=O)[C@@H](NC(=O)[C@H](CC(=O)O)NC(=O)CCOCCOCCOCCOCCNC(=O)CCCc2cn(CCCCCC(=O)NC(COCCC(=O)NCCOCCOCCOCCO[C@@H]3O[C@H](CO)[C@H](O)[C@H](O)[C@H]3Nc3cncc(C(F)(F)F)n3)COCCC(=O)NCCOCCOCCOCCO[C@@H]3O[C@H](CO)[C@H](O)[C@H](O)[C@H]3Nc3cncc(C(F)(F)F)n3)nn2)CSSC[C@@H](C(=O)N[C@H](C(N)=O)[C@@H](C)O)NC(=O)[C@H](Cc2c[nH]c3ccccc23)NC(=O)[C@H](C(C)C)NC(=O)[C@H](CC(C)C)NC(=O)[C@H](CCC(=O)O)NC(=O)CNC1=O` [compound 93], for which the dissociation constant (Kd) on IgG (second table, read-out: IgG KD) was less than 100 nM; at ASGPR (setting [7]) it was less than 100 nM. For the same molecule, the EC50 (in the test on HepG2 cells (setting [8]); in test [1] (setting [9])) was less than 100 nM in each case.

On to `CC(C)C[C@@H]1NC(=O)[C@H](Cc2cnc[nH]2)NC(=O)[C@H](Cc2c[nH]c3ccccc23)NC(=O)[C@H](C)NC(=O)[C@@H]2CSSC[C@H](NC(=O)[C@H](Cc3c[nH]c4ccccc34)NC(=O)[C@H](C(C)C)NC(=O)[C@H](CC(C)C)NC(=O)[C@H](CCC(=O)O)NC(=O)CNC1=O)C(=O)N[C@@H]([C@@H](C)O)C(=O)N1CCC[C@@H]1C(=O)N1C[C@H](NC(=O)CNC(COCCC(=O)NCCOCCOCCOCCOC[C@H]3OC[C@H](Nc4cncc(C(F)(F)F)n4)[C@@H](O)[C@H]3O)COCCC(=O)NCCOCCOCCOCCOC[C@H]3OC[C@H](Nc4cncc(C(F)(F)F)n4)[C@@H](O)[C@H]3O)C[C@H]1C(=O)N[C@@H](CC(=O)O)C(=O)N2` [compound 97], for which the Kd on IgG (second table, read-out: IgG KD) is less than 100 nM; on ASGPR (setting [7]), less than 100 nM. Further, the concentration giving a half-maximal response (EC50) in the test on HepG2 cells (Homo sapiens, the 25th table, class symbols, read-out: Uptake EC50) was less than 100 nM; in test [1] (setting [9]) it was less than 100 nM.
